This assay addresses Acetylcholinesterase (Homo sapiens, UniProt P22303). Description: Concentration required to inhibit acetylcholinesterase isolated from human erythrocytes.

Here are results for two compounds from ChEMBL document CHEMBL1151555, “Total synthesis of an optically active 8-carba-physostigmine analog: a potent acetylcholinesterase inhibitor” (Bioorg Med Chem Lett, 1991).

A word on the IC50: it is the point on the concentration scale where inhibition reaches its midpoint. High values mean weaker potency in that assay, low ones greater potency in that assay.

Sequence of Acetylcholinesterase (P22303 whole entry): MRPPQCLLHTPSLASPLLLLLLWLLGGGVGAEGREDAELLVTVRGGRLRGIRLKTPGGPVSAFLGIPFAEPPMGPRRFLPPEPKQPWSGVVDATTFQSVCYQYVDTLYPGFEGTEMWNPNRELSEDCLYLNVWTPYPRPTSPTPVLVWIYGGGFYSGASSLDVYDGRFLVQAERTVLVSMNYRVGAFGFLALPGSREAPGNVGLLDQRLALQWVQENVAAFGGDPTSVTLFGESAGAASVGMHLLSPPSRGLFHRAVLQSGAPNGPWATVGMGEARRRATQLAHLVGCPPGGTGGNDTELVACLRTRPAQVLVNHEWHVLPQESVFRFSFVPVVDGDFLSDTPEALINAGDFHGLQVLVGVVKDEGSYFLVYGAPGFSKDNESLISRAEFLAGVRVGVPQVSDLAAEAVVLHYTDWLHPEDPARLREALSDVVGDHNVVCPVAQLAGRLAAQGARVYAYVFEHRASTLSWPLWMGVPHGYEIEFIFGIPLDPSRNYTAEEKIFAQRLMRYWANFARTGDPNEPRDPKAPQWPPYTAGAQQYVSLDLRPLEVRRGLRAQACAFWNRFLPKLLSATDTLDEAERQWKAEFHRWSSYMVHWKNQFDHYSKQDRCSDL

On to `CCCCCCNC(=O)Oc1ccc2c(c1)[C@]1(C)CCN(CC)[C@@H]1C2`, for which the 50% inhibitory concentration (IC50) was 20 nM.
Take `CCCCCCNC(=O)Oc1ccc2c(c1)[C@@]1(C)CCN(CC)[C@H]1C2`: the IC50 was 233 nM.
